SMILES strings stand for the structures. Like-named read-outs stand apart in the source and are kept apart here.

Data set [1] concerns the target human PDE9 (Homo sapiens (Human), UniProt O76083). As to conditions: background statement on conventional PDE inhibitors; cited from earlier work.
The conditions of data set [2]: human.
The nature of data set [3]: Stability in human liver microsome.
A short description of data set [4]: Canine pharmacokinetic evaluation. As to conditions: Beagle dogs, n = 3; for F %: dose iv/po 1/2 mg/kg; for AUCinf po / tz1/2 po (terminal elimination half-life): intragastric 2.0 mg/kg; for AUCinf iv / Cl_obs iv (clearance rate) / tz1/2 iv (terminal elimination half-life): intravenous bolus 1 mg/kg.
Data set [5] can be described thus: Rat pharmacokinetic evaluation. As to conditions: SD rat; for tz1/2 po (terminal elimination half-life): intragastric 5.0 mg/kg; for tz1/2 iv (terminal elimination half-life): intravenous bolus 1 mg/kg. The data set is classed as in vivo, SD male rats. As for the experimental part:
Experimental Example 4: Rat Pharmacokinetic Evaluation of the Compounds of the Invention
Aim: The in vivo pharmacokinetic parameters of the compounds in SD male rats (purchased from Beijing Vital River Animal Technology Co., Ltd.) were evaluated and bioavailability of the compounds was examined.
Animal Administration and Sample Collection:
The solution of compounds 65, 90, 107, 158 was intragastrically administered to SD rat at a dose of 5.0 mg/kg.
The experimental compound 76 was dissolved in 30% DMF+30% PEG400+40% saline to prepare a solution. The solution of compound 76 was intragastrically administered to SD rat at a dose of 5.0 mg/kg.
The experimental compound 76 was dissolved in 30% DMF+30% PEG400+40% saline to prepare a solution.
The experimental compounds 84 and 96 were dissolved in 5% DMSO+10% PEG400+85% (28% HP-β-CD) saline to prepare a solution. The solution of compounds 84 and 96 was intragastrically administered to SD rat at a dose of 5.0 mg/kg.
The experimental compounds 84 and 96 were dissolved in 5% DMSO+10% PEG400+85% (28% HP-β-CD) saline to prepare a solution.
The animals were fixed. The tail was heated with a water bath at 10 min before each time point. About 100 μL of blood from tail vein was collected, and then placed in an anti-coagulation tube containing EDTA-K2 after collection. Blood samples were centrifuged at 8000 rpm at 4° C. for 6 min to obtain plasma samples.
The concentration of test sample was output using Analyst 1.6.1 from AB SCIEX.

The mark [6] stands for this setting: human liver microsome 0.5 mg protein/mL, compound 1 μM, 37° C.

Sequence of human PDE9 (O76083 whole entry): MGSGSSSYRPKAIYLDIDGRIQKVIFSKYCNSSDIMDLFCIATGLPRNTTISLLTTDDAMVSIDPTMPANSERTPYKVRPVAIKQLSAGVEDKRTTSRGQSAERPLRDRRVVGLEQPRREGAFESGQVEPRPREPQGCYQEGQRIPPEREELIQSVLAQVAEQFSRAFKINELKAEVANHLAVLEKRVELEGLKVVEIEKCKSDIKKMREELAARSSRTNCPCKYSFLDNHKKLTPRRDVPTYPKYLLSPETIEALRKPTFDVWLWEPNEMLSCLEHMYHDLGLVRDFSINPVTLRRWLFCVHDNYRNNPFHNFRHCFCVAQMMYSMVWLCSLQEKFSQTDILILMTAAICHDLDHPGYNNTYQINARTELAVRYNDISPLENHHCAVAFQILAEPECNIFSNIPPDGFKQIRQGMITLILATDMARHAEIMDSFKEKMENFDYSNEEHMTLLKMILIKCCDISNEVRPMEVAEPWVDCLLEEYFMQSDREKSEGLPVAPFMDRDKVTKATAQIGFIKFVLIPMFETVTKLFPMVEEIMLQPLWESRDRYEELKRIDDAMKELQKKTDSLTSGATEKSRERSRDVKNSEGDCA

`OCCN(CCO)c1nc(N2CCCCC2)c2nc(N(CCO)CCO)nc(N3CCCCC3)c2n1` [dipyridamole]: in data set [1], the “inhibition activity on PDE9” value was “no or very low inhibition activity”.

Turning to `CC(C)(O)c1cc2c(N3CCC4(CCC4)CC3)c(C#N)c(=O)[nH]c2cn1` [Compound 82, 6-(2-hydroxypropan-2-yl)-2-oxo-4-(7-azaspiro[3.5]nonane-7-yl)-1,2-dihydro-1,7-naphthyridin-3-carbonitrile], in data set [2], the k stood at 0.9760 min⁻¹.

For `N#Cc1c(N2CCC3(CCC3)CC2)c2cc(N3CC(N)C3)ncc2[nH]c1=O` [Compound 53, 6-(3-aminoazetidin-1-yl)-2-oxo-4-(7-azaspiro[3.5]nonane-7-yl)-1,2-dihydro-1,7-naphthyridin-3-carbonitrile], the k in data set [2] turned out to be 0.4821 min⁻¹.

Regarding `COCCOc1cc2c(N3CCC(C)(OC)CC3)c(C#N)c(=O)[nH]c2cn1` [Compound 145, 4-(4-methoxy-4-methylpiperidin-1-yl)-6-(2-methoxyethoxy)-2-oxo-1,2-dihydro-1,7-naphthyridin-3-carbonitrile], the k in data set [3] (setting [6]) amounted to 0.0019 min⁻¹.

Turning to `N#Cc1c(N2CCC3(CCC3)CC2)c2cc(N3CC(O)C3)ncc2[nH]c1=O` [Compound 51, 6-(3-hydroxyazetidin-1-yl)-2-oxo-4-(7-azaspiro[3.5]nonane-7-yl)-1,2-dihydro-1,7-naphthyridin-3-carbonitrile], in data set [2], the k is 0.9418 min⁻¹.

As to `CC(=O)Nc1ccc(-c2c[nH]c(=O)cn2)cc1` [SKF94120], the “inhibition activity on PDE9” value in data set [1] is “no or very low inhibition activity”.

Turning to `N#Cc1c(N2CCCCCC2)c2ccccc2[nH]c1=O` [Compound I-8, reference compound], in data set [3] (setting [6]), the CLint is reported as 0.1244 mL · min^−1 · mg^−1 proteins and the k turned out to be 0.727 min⁻¹. Further, the “Original drug residual % at 60 min” value in data set [3] (human liver microsome 0.5 mg protein/mL, compound 1 μM, β-NADPH 1 mM, 37° C., 60 min) came to 5.19%. Further, the half-life at 1 μM in data set [3] (human, liver microsomes) worked out at 0.186 h.

For the molecule `COc1ccc(C2CNC(=O)C2)cc1OC1CCCC1` (centres unmarked) [rolipram], in data set [1], the “inhibition activity on PDE9” value is given as “no or very low inhibition activity”.

`CCc1cc2c(N3CCC(C)(OC)CC3)c(C#N)c(=O)[nH]c2cn1` [Compound 107, 6-ethyl-4-(4-methoxy-4-methylpiperidin-1-yl)-2-oxo-1,2-dihydro-1,7-naphthyridin-3-carbonitrile] returned a k in data set [3] (setting [6]) of 0.0023 min⁻¹.

Turning to `N#Cc1c(N2CCC3(CC2)CC3)c2ccncc2[nH]c1=O` [Compound 25, 2-oxo-4-(6-azaspiro[2.5]octane-6-yl)-1,2-dihydro-1,7-naphthyridin-3-carbonitrile], the k in data set [2] amounted to 0.0022 min⁻¹. In data set [4], the F % is 99.1%, the AUCinf po was 4.449 µg·h/mL, the “tz1/2 po (terminal elimination half-life)” value (“tz1/2 po” for short) is 9.45 h and the AUCinf iv stood at 2.244 µg·h/mL. Moreover, in data set [4], the “Cl_obs iv (clearance rate)” value was 0.47 L/h/kg and the “tz1/2 iv (terminal elimination half-life)” value (shortened to “tz1/2 iv”) came out at 10.4 h. Further, in data set [5], the “tz1/2 po” value is 1.40 h and the “tz1/2 iv” value was 0.51 h.

On to `CC(C)Cn1c(=O)n(C)c(=O)c2[nH]cnc21` [IBMX], for which, in data set [1], the “inhibition activity on PDE9” value is given as “no or very low inhibition activity”.

Regarding `COc1cc2c(N3CCC4(CCC4)CC3)c(C#N)c(=O)[nH]c2cn1` [Compound 66, 6-methoxy-2-oxo-4-(7-azaspiro[3.5]nonane-7-yl)-1,2-dihydro-1,7-naphthyridin-3-carbonitrile], in data set [3] (setting [6]), the T½ entry is “→^” and the k was -0.515 min⁻¹.

Turning to `N#Cc1c(N2CCC3(CC2)CC3)c2cc(C(=O)O)ncc2[nH]c1=O` [Compound 83, 3-cyano-2-oxo-4-(6-azaspiro[2.5]octane-6-yl)-1,2-dihydro-1,7-naphthyridin-6-carboxylic acid], in data set [3] (setting [6]), the T½ entry is “→∞” and the k stood at 0.5421 min⁻¹.

In data set [2], `N#Cc1c(N2CCC3(CC2)CC3)c2ncccc2[nH]c1=O` [Compound 80, 2-oxo-4-(6-azaspiro[2.5]octane-6-yl)-1,2-dihydro-1,5-naphthyridin-3-carbonitrile] yielded a k of 0.9877 min⁻¹.

`COC1(C)CCN(c2c(C#N)c(=O)[nH]c3cnc(C(C)(C)O)cc23)CC1` [Compound 109, 6-(2-hydroxypropan-2-yl)-4-(4-methoxy-4-methylpiperidin-1-yl)-2-oxo-1,2-dihydro-1,7-naphthyridine-3-carbonitrile] showed a k in data set [3] (setting [6]) of 0.4444 min⁻¹.

In turn, `COC1(C)CCN(c2c(C#N)c(=O)[nH]c3cnccc23)CC1` [Compound 81, 4-(4-methoxy-4-methylpiperidin-1-yl)-2-oxo-1,2-dihydro-1,7-naphthyridin-3-carbonitrile] yielded a k in data set [3] (setting [6]) of 0.0012 min⁻¹.

As for `CC(C)(O)c1cc2c(N3CCC4(CC3)CC4)c(C#N)c(=O)[nH]c2cn1` [Compound 84, 6-(2-hydroxypropan-2-yl)-2-oxo-4-(6-azaspiro[2.5]octane-6-yl)-1,2-dihydro-1,7-naphthyridin-3-carbonitrile], in data set [5], the “tz1/2 po” value was 3.24 h and the “tz1/2 iv” value is 1.89 h.

With `Cc1cc2c(N3CCC4(CCC4)CC3)c(C#N)c(=O)[nH]c2cn1` [Compound 65, 6-methyl-2-oxo-4-(7-azaspiro[3.5]nonane-7-yl)-1,2-dihydro-1,7-naphthyridin-3-carbonitrile], in data set [4], the F % is given as 25.5%, the AUCinf po stood at 0.543 µg·h/mL, the “tz1/2 po” value is recorded as 0.47 h and the AUCinf iv was determined as 1.065 µg·h/mL. In addition, in data set [4], the “Cl_obs iv (clearance rate)” value amounted to 0.94 L/h/kg and the “tz1/2 iv” value came to 0.49 h. In data set [5], the “tz1/2 po” value is reported as 2.25 h and the “tz1/2 iv” value was found to be 1.47 h.

For `CCc1cc2c(N3CCC4(CC3)CC4)c(C#N)c(=O)[nH]c2cn1` [Compound 76, 6-ethyl-2-oxo-4-(6-azaspiro[2.5]octane-6-yl)-1,2-dihydro-1,7-naphthyridin-3-carbonitrile], the k in data set [2] turned out to be 0.0015 min⁻¹. In data set [5], the “tz1/2 po” value amounted to 9.60 h and the “tz1/2 iv” value amounted to 0.89 h.

For the molecule `N#Cc1c(N2CCC3(CC2)CC3)c2cc(C(O)CO)ncc2[nH]c1=O` (centres unmarked) [Compound 32, 6-(1,2-dihydroxyethyl)-2-oxo-4-(6-azaspiro[2.5]octane-6-yl)-1,2-dihydro-1,7-naphthyridin-3-carbonitrile], in data set [3] (setting [6]), the T½ result is recorded as “→∞” and the k is -0.3760 min⁻¹.

In data set [2], `N#Cc1c(N2CCC3(CC2)CC3)c2cc(C(O)C3CC3)ncc2[nH]c1=O` (centres unmarked) [Compound 90, 6-(cyclopropyl (hydroxy)methyl)-2-oxo-4-(6-azaspiro[2.5]octane-6-yl)-1,2-dihydro-1,7-naphthyridin-3-carbonitrile] came in with a k of 0.0037 min⁻¹. Besides, in data set [5], the “tz1/2 po” value is reported as 4.49 h and the “tz1/2 iv” value is recorded as 1.48 h.

`N#Cc1c(N2CC[C@@H](n3cccn3)C2)c2ccncc2[nH]c1=O` [Compound 19, (R)-4-(3-(1H-pyrazol-1-yl)pyrrolidin-1-yl)-2-oxo-1,2-dihydro-1,7-naphthyridin-3-carbonitrile] showed a k in data set [3] (setting [6]) of 0.191 min⁻¹.

Take `CCOC(=O)C1=C[C@]2(CC)CCCN3CCc4c(n1c1ccccc41)[C@@H]32` [vinpocetine]: the “inhibition activity on PDE9” value in data set [1] is “no or very low inhibition activity”.

`CNC(=O)c1cc2c(N3CCC4(CC3)CC4)c(C#N)c(=O)[nH]c2cn1` [Compound 96, 3-cyano-N-methyl-2-oxo-4-(6-azaspiro[2.5]octane-6-yl)-1,2-dihydro-1,7-naphthyridin-6-formamide]: the “tz1/2 iv” value in data set [5] is 0.30 h⁻¹.
